Measurements as given in ChEMBL document CHEMBL3352064, “Synthesis and bioactive evaluation of a novel series of coumarinazoles” (Bioorg Med Chem Lett, 2014).
Values after ≈ are worked out from the molar mass of the structure shown.

Columns and labels:
[1] = test system: Escherichia coli; assay: Antimicrobial activity against Escherichia coli JM109 by two-fold serial dilution technique; assay type: functional
[2] = test system: Pseudomonas aeruginosa; assay: Antimicrobial activity against Pseudomonas aeruginosa by two-fold serial dilution technique; assay type: functional
[3] = test system: Staphylococcus aureus; assay: Antimicrobial activity against methicillin-resistant Staphylococcus aureus N315 by two-fold serial dilution technique; assay type: functional
[4] = test system: Aspergillus flavus; assay: Antimicrobial activity against Aspergillus flavus by two-fold serial dilution technique; assay type: functional
[5] = test system: Saccharomyces cerevisiae; assay: Antimicrobial activity against Saccharomyces cerevisiae by two-fold serial dilution technique; assay type: functional
[6] = test system: Micrococcus luteus; assay: Antimicrobial activity against Micrococcus luteus ATCC 4698 by two-fold serial dilution technique; assay type: functional
[7] = test system: Bacillus subtilis; assay: Antimicrobial activity against Bacillus subtilis by two-fold serial dilution technique; assay type: functional
[8] = test system: Candida; assay: Antimicrobial activity against Candida mycoderma by two-fold serial dilution technique; assay type: functional
[9] = n-Octanol-water partition coefficient, log P of the compound after 24 hrs by shake flask method; assay type: physicochemical
[10] = test system: Shigella dysenteriae; assay: Antimicrobial activity against Shigella dysenteriae by two-fold serial dilution technique; assay type: functional
[11] = test system: Cyberlindnera jadinii; assay: Antimicrobial activity against Candida utilis by two-fold serial dilution technique; assay type: functional; settings: Williopsis jadinii
[12] = test system: Candida albicans; assay: Antimicrobial activity against Candida albicans by two-fold serial dilution technique; assay type: functional

Compound | MIC [1] [µg/mL] | MIC [2] [µg/mL] | MIC [3] [µg/mL] | MIC [4] [µg/mL] | MIC [5] [µg/mL] | MIC [6] [µg/mL] | MIC [7] [µg/mL] | MIC [8] [µg/mL] | logP at 24 h [9] | MIC [10] [µg/mL] | MIC [11] [µg/mL] | MIC [12] [µg/mL]
Cc1cc2ncn(CC(O)COc3cc4oc(=O)cc(C)c4cc3OCC(O)Cn3cnc4cc(C)c(C)cc43)c2cc1C (stereo not given) | 32 (≈ 53.6 µM) | 16 (≈ 26.8 µM) | 32 (≈ 53.6 µM) | 64 (≈ 107 µM) | 16 (≈ 26.8 µM) | 64 (≈ 107 µM) | 128 (≈ 215 µM) | 32 (≈ 53.6 µM) | 0.61 | 16 (≈ 26.8 µM) | 4 (≈ 6.7 µM) | 16 (≈ 26.8 µM)
Cc1cc(=O)oc2cc(OCC(O)Cn3cnc4ccccc43)ccc12 (stereo not given) | 128 (≈ 365 µM) | > 512 | 512 (≈ 1460 µM) | > 512 | 512 (≈ 1460 µM) | 512 (≈ 1460 µM) | 128 (≈ 365 µM) | 128 (≈ 365 µM) | 0.55 | 512 (≈ 1460 µM) | 512 (≈ 1460 µM) | 128 (≈ 365 µM)
OC(Cn1cncn1)(Cn1cncn1)c1ccc(F)cc1F [FLUCONAZOLE] | – | – | – | 256 (≈ 836 µM) | 16 (≈ 52.2 µM) | – | – | 4 (≈ 13.1 µM) | – | – | 8 (≈ 26.1 µM) | 1 (≈ 3.27 µM)
Cc1cc(=O)oc2cc(OCC3CO3)cc(OCC3CO3)c12 (stereo not given) | 0.5 (≈ 1.64 µM) | 8 (≈ 26.3 µM) | 64 (≈ 210 µM) | 16 (≈ 52.6 µM) | 8 (≈ 26.3 µM) | 8 (≈ 26.3 µM) | 4 (≈ 13.1 µM) | 8 (≈ 26.3 µM) | – | 4 (≈ 13.1 µM) | 16 (≈ 52.6 µM) | 8 (≈ 26.3 µM)
Cc1cc2ncn(CC(O)COc3ccc4c(C)cc(=O)oc4c3)c2cc1C (stereo not given) | 128 (≈ 338 µM) | 64 (≈ 169 µM) | 64 (≈ 169 µM) | 128 (≈ 338 µM) | 32 (≈ 84.6 µM) | 128 (≈ 338 µM) | 128 (≈ 338 µM) | 16 (≈ 42.3 µM) | 0.61 | 64 (≈ 169 µM) | 4 (≈ 10.6 µM) | 16 (≈ 42.3 µM)
CCn1cc(C(=O)O)c(=O)c2cc(F)c(N3CCNCC3)cc21 [NORFLOXACIN] | 16 (≈ 50.1 µM) | 1 (≈ 3.13 µM) | 8 (≈ 25.1 µM) | – | – | 2 (≈ 6.26 µM) | 16 (≈ 50.1 µM) | – | – | 4 (≈ 12.5 µM) | – | –
Cc1cc(=O)oc2cc(OCC(O)Cn3cnc4ccccc43)c(OCC(O)Cn3cnc4ccccc43)cc12 (stereo not given) | > 512 | 128 (≈ 237 µM) | 512 (≈ 947 µM) | 512 (≈ 947 µM) | > 512 | 128 (≈ 237 µM) | > 512 | 64 (≈ 118 µM) | 0.49 | > 512 | 512 (≈ 947 µM) | > 512
